Measurements from patent US20130109698A1, “Small Molecule Inhibitors of Functions of the HIV-1 Matrix Protein” (priority 2010, published 2013).
Where two headings read alike, the source gives them in different places.

How the values were obtained:
HIV-1 Ba-L = test: Antiviral activity of additional compounds (Tables 6 and 7); assay type: cell-based; settings: for IC50 / IC90: Human immunodeficiency virus 1, BAL
Description: (§1) HIV human peripheral blood mononuclear cell (PBMC) assays were performed as described previously (Lanier et al., 2010, Antimicrob Agents Chemother 54:2901-2909 and Ptak et al., 2008, Antimicrob Agents Chemother 52:1302-1317). Briefly, fresh PBMCs, seronegative for HIV and hepatitis B virus (HBV), were isolated from blood samples of the screened donors (Biological Specialty Corporation, Colmar, Pa.) by using lymphocyte separation medium (LSM; density, 1.078±0.002 g/ml; Cellgro; Mediatech, Inc.) by following the manufacturer's instructions. Cells were stimulated by incubation in 4 μg/mL phytohemagglutinin (PHA; Sigma) for 48 to 72 h. Mitogenic stimulation was maintained by the addition of 20 U/mL recombinant human interleukin-2 (rhIL-2; R&D Systems, Inc.) to the culture medium. PHA-stimulated PBMCs from at least two donors were pooled, diluted in fresh medium, and added to 96-well plates at 5×10^4 cells/well. Cells were infected (final multiplicity of infection [MOI] of ≅0.1) in the presence of nine different concentrations of test compounds (triplicate wells/concentration) and incubated for 7 days. To determine the level of virus inhibition, cell-free supernatant samples were collected for analysis of reverse transcriptase activity (Buckheit et al., 1991, AIDS Res Hum Retroviruses 7:295-302). Following removal of supernatant samples, compound cytotoxicity was measured by the addition of 3-(4,5-dimethylthiazol-2-yl)-5-(3-carboxymethoxy-phenyl)-2-(4-sulfophenyl)-2H-tetrazolium (MTS; CellTiter 96 reagent; Promega) by following the manufacturer's instructions.

HIV-1 NL4-3 = test: as above; assay type: cell-based; settings: for IC50 / IC90: Human immunodeficiency virus 1, NL43
Description: as §1

[1] = Compound cytotoxicity in PBMCs (MTS); assay type: cell-based, human; settings: human, read-out: TC50
Description: as §1

HIV-1 MA = target: T1, HIV-1 MA (Human immunodeficiency virus type 1 group M subtype B, UniProt P03348); test: Surface plasmon resonance direct binding to immobilized HIV-1 MA; settings: CM7 sensor chip, 10 μM (FIG. 14)
T1 construct: His6 (N, cleaved yes); SUMO (N, cleaved yes); made in house; host or cells: Escherichia coli BL21 (DE3) Codon+-RIL
Description: An assay was devised to monitor the interactions of small-molecule compounds to HIV-1 MA using SPR. In this assay, HIV-1LA1 MA was immobilized to the flow cells of a CM5 sensor chip to high density (˜1.3 kRU) or a CM7 sensor chip to high density (19 kRU) using standard amine coupling. A reference surface was similarly created by immobilizing the SUMO protein or a nonspecific antibody ARC4033 (antimouse/rat interferon-γ: BioSource). In small-molecule assays, the buffering system used is important due to the low responses obtained in binding assays. […] A stock solution of the MTI compounds was prepared by dissolving in 100% dimethyl sulfoxide (DMSO) to a final concentration of 10 mM.
To prepare the sample for analysis, 30 μL of the stock solution of the compound of the invention was added to sample preparation buffer (PBS, pH 7.2) to a final volume of 1 mL and mixed thoroughly. Preparation of analyte in this manner ensured that the concentration of DMSO was matched with that of running buffer with 3% DMSO. Lower concentrations of each compound were then prepared by two-fold serial dilutions into running buffer (PBS, 3% DMSO, pH 7.2). These compound dilutions were then injected over the control and MA surfaces at a flow rate of 30 μL min^−, for a 4-min association phase, followed by a 5-min dissociation phase.
In one aspect, owing to the relatively fast dissociation rates of these compounds, regeneration of these surfaces was accomplished by extensive washing of the system followed by a 5 min wait phase, a second wash, and a final 15 min wait phase. To secure complete regeneration, a buffer injection (5 min^on/5 min^off) was performed before each subsequent injection of compound.
Response to a small-molecule compound (NBD-556) specific for HIV-1 gp120 was also monitored to ensure specificity.
Data analysis was performed using BIAEvaluation 4.0 software (GE Healthcare). The responses of a buffer injection and responses from the ARC4033-immobilized reference cell were subtracted to account for nonspecific binding. The average maximum response was generated from a minimum of 3 data sets and was used to define the standard deviation for each compound binding to the HIV-1 MA protein.
The MTI compounds are predicted to interact with HIV-1 MA and thereby disrupt its functioning during the HIV-1 replication cycle. However, it is possible that a compound might exert its action via another mechanism not involving MA. Therefore, studies were performed to determine that the MTI compounds are directed against HIV-1 MA. The direct interaction of compounds CMPD-18, CMPD-17, CMPD-7, and CMPD-14 with HIV-1 MA was assayed using surface plasmon resonance interaction analyses. Wild-type HIV-1 MA protein was overproduced in E. coli using the pETHSUL expression system and purified using successive IMAC strategies, followed by an ion exchange chromatographic step as outlined in Materials and Methods. FIG. 6 illustrates the purification profile of HIV-1 MA. The purified MA was then immobilized onto the surface of a high-capacity CM7 sensor chip. Similarly, the monoclonal antibody ARC4033 (antimouse/rat interferon-γ; BioSource, Invitrogen, Carlsbad, Calif.) was immobilized on a CM7 sensor chip and was used to correct for background binding and instrument and buffer artifacts.

HIV-1 92BR030 = test: Anti-HIV efficacy in human PBMCs, reverse transcriptase activity; assay type: cell-based; settings: HIV-1 92BR030, PBMCs
Description: as §1

HIV-1 93IN101 = test: as above; assay type: cell-based; settings: HIV-1 93IN101, PBMCs
Description: as §1

SIV MAC251 = test: Antiviral efficacy in PBMCs, reverse transcriptase activity; assay type: cell-based
[2] = tested on: luciferase-reporter HIV-1 NL4-3 pseudotyped with HxBc2 envelope produced in 293T cells; test: microbe, parasite or virus in culture
[3] = Human immunodeficiency virus 1, PBMC
[4] = Simian immunodeficiency virus, PBMC

Structure (SMILES)	IC50 (HIV-1 Ba-L) [µM]	IC90 (HIV-1 Ba-L) [µM]	IC50 (HIV-1 NL4-3) [µM]	IC90 (HIV-1 NL4-3) [µM]	CC50 at 7 days ([1]; Tables 6 and 7 study) [µM]	further results
CN1CCN(C(=O)c2ccc(CNC(=O)CNC(=O)COc3ccc(Cl)cc3)cc2)CC1 [CMPD-42, 2-(4-chlorophenoxy)-N-(2-((4-(4-methylpiperazine-1-carbonyl)benzyl)amino)-2-oxoethyl)acetamide]	> 100	> 100	> 100	> 100	> 100	–
O=C(CNC(=O)COc1ccccc1)NCc1ccccc1 [CMPD-38, N-benzyl-2-(2-phenoxyacetamido)acetamide]	> 100	> 100	> 100	> 100	> 100	–
COc1ccc(OCC(=O)NCC(=O)NCc2ccc(C(=O)N3CCN(C)CC3)cc2)cc1 [CMPD-43, 2-(4-methoxyphenoxy)-N-(2-((4-(4-methylpiperazine-1-carbonyl)benzyl)amino)-2-oxoethyl)acetamide]	> 100	> 100	> 100	> 100	> 100	–
CC(=O)NCC(=O)NCc1ccc(C(=O)N2CCCCC2)cc1 [CMPD-45, 2-acetamido-N-(4-(piperidine-1-carbonyl)benzyl)acetamide]	> 100	> 100	> 100	> 100	> 100	–
CN1CCN(C(=O)c2ccc(CNC(=O)CNC(=O)COc3ccc(C(F)(F)F)cc3)cc2)CC1 [CMPD-44, N-(4-(4-methylpiperazine-1-carbonyl)benzyl)-2-(2-(4-(trifluoromethyl)phenoxy)acetamido)acetamide]	> 100	> 100	> 100	> 100	> 100	–
CC1(C)CC(NC(=O)C(=O)Nc2ccc(Cl)cc2)CC(C)(C)N1 [NBD-556, N-(4-chlorophenyl), —N′-(2,2,6,6-tetramethylpiperidin-4-yl)-oxalamide, reference compound]	–	–	–	–	–	direct interaction with sensor chip-immobilized HIV-1 MA (HIV-1 MA): no such interaction
COc1ccccc1-c1noc(=O)n1-c1cccc(C(F)(F)F)c1 [ITI-367, 3-(2-methoxyphenyl)-4-[3-trifluoromethyl-phenyl]-1,2,4-oxadiazol-5-one, reference compound]	–	–	–	–	–	Antiviral index (TC50/IC50) (HIV-1 92BR030): >2.13; IC50 (HIV-1 92BR030; [3]): 47 µM; IC90 (HIV-1 92BR030; [3]): > 100 µM; Antiviral index (TC50/IC50) (HIV-1 93IN101): >2.39; IC50 (HIV-1 93IN101; [3]): 41.9 µM; IC90 (HIV-1 93IN101; [3]): 96 µM; Antiviral index (TC50/IC50) (SIV MAC251): >1.33; IC50 (SIV MAC251; [4]): 74.9 µM; IC90 (SIV MAC251; [4]): > 100 µM; CC50 at 7 days ([1]; Table 4 study, PBMCs): > 100 µM
O=C(CNC(=O)COc1ccccc1)NCc1ccc(Cl)cc1 [CMPD-35, N-(4-chlorobenzyl)-2-(2-phenoxyacetamido)acetamide]	> 100	> 100	> 100	> 100	> 100	–
CN1CCN(C(=O)c2ccc(CNC(=O)CNC(=O)COc3ccccc3)cc2)CC1 [CMPD-40, N-(4-(4-methylpiperazine-1-carbonyl)benzyl)-2-(2-phenoxyacetamido)acetamide]	> 100	> 100	> 100	> 100	> 100	–
O=C(CNC(=O)COc1ccc(Cl)cc1)NCc1ccc(C(=O)N2CCCCC2)cc1 [CMPD-46, 2-(4-chlorophenoxy)-N-(2-oxo-2-((4-(piperidine-1-carbonyl)benzyl)amino)ethyl)acetamide]	72.6	> 100	78.1	> 100	> 100	Antiviral index (TC50/IC50) (HIV-1 Ba-L): > 1.38; Antiviral index (TC50/IC50) (HIV-1 NL4-3): > 1.28
CC(=O)NCC(=O)NCc1ccc(C(=O)N2CCN(C)CC2)cc1 [CMPD-41, 2-acetamido-N-(4-(4-methylpiperazine-1-carbonyl)benzyl)acetamide]	> 100	> 100	> 100	> 100	> 100	–
COc1ccc(OCC(=O)NCC(=O)NCc2ccc(C(=O)N3CCCCC3)cc2)cc1 [CMPD-47, 2-(4-methoxyphenoxy)-N-(2-oxo-2-((4-(piperidine-1-carbonyl)benzyl)amino)ethyl)acetamide]	50.8	96.1	52.7	92.7	73.1	Antiviral index (TC50/IC50) (HIV-1 Ba-L): 1.44; Antiviral index (TC50/IC50) (HIV-1 NL4-3): 1.39
O=C(CNC(=O)COc1ccccc1)NCc1ccc(C(F)(F)F)cc1 [CMPD-37, N-(2-oxo-2-((4-(trifluoromethyl)benzyl)amino)ethyl)-2-phenoxyacetamide]	> 100	> 100	> 100	> 100	> 100	–
O=C(CNC(=O)COc1ccccc1)NCc1cccc(Cl)c1 [CMPD-39, N-(3-chlorobenzyl)-2-(2-phenoxyacetamido)acetamide]	> 100	> 100	> 100	> 100	> 100	–
O=C(CNC(=O)COc1ccc(C(F)(F)F)cc1)NCc1ccc(C(=O)N2CCCCC2)cc1 [CMPD-48, N-(2-oxo-2-((4-(piperidine-1-carbonyl)benzyl)amino)ethyl)-2-(4-(trifluoromethyl)phenoxy)acetamide]	20.6	> 100	22.5	> 100	> 100	Antiviral index (TC50/IC50) (HIV-1 Ba-L): > 4.86; Antiviral index (TC50/IC50) (HIV-1 NL4-3): > 4.45
COc1c(Cl)cc(C(=O)N2CCN(Cc3nc(-c4ccc(C)cc4)no3)CC2)cc1Cl [CMPD-3, (3,5-dichloro-4-methoxyphenyl)(4-((3-(p-tolyl)-1,2,4-oxadiazol-5-yl)methyl)piperazin-1-yl)methanone]	–	–	–	–	–	IC50 [2]: > 100 µM
COc1ccc(CNC(=O)CNC(=O)COc2ccccc2)cc1 [CMPD-36, N-(4-methoxybenzyl)-2-(2-phenoxyacetamido)acetamide]	> 100	> 100	> 100	> 100	> 100	–
